Reference: US20030008913A1, “Derivatives of 2,2-dimethyl 3(2-fluoro vinyl) cyclopropane carboxylic acid, their preparation process and their use as pesticides” (priority 1997, published 2003)

Tested on: Blattela
Assay: Knockdown-effect against Blattela in a windtunnel (comparative example)
Assay type: in vivo
Details: Rate 0.003% w/v in 80% OPD 120 acetone mixture
Experimental: The knockdown-effect at 30 seconds and 2 minutes of the compounds of Examples 14, 27, 43 and lmiprothrin, a commercially used pyrethroid, against Blattela was assessed.
The tests were carried out in a windtunnel. The active ingredient was diluted to 0.003% w/v in an 80% OPD 120 acetone mixture. Controls (i.e., sprayed with the carrier liquid alone) were inserted at the beginning of the test, and twice at the end.

C#CCN1CC(=O)N(COC(=O)[C@@H]2C(C=C(C)C)C2(C)C)C1=O (mixture of isomers) [Imiprothrin]
knockdown-effect at 30 sec. (30 sec.): 0% | knockdown-effect at 2 min (2 min): 10%
